Source: patent US20240158446A1, “CYCLIC COMPOUND HAVING SELECTIVE INHIBITORY ACTION ON KRAS OVER HRAS AND NRAS” (CHUGAI SEIYAKU KABUSHIKI KAISHA, priority 2021, published 2024)
pKd: −log10 of the molar value. Like-named read-outs stand apart in the source and are kept apart here. Where a SMILES comes first, the peptide text is derived from it. Bridges are numbered along the chain shown (N, C = ends). [ ]: non-standard residue; d: D form. The star is where a group is joined. hPhe(3-Cl-4-CF3) = N[C@@H](CCc1ccc(C(F)(F)F)c(Cl)c1)C(=O)O; NPrPhe(4-CF3) = CCCN[C@@H](Cc1ccc(C(F)(F)F)cc1)C(=O)O; NMeGly(cPent) = CN[C@H](C(=O)O)C1CCCC1; Pro(4,4-F2) = O=C(O)[C@@H]1CC(F)(F)CN1; NMeD = CN[C@@H](CC(=O)O)C(=O)O; NMeL = CN[C@@H](CC(C)C)C(=O)O; Morpholide = C1CN(*)CCO1; Ac4c = NC1(C(=O)O)CCC1; Aib = CC(C)(N)C(=O)O; NEtG = CCNCC(=O)O; Sar = CNCC(=O)O

Key:
[1] = target: GDP-bound NRAS wild-type protein (Homo sapiens, UniProt P01111); assay: Binding to NRAS by surface plasmon resonance (SPR), Single Cycle Kinetics; settings: SPR, GDP-bound NRAS wild-type protein vs GDP-bound KRAS wild-type protein
Chain of GDP-bound NRAS wild-type protein (P01111 whole entry): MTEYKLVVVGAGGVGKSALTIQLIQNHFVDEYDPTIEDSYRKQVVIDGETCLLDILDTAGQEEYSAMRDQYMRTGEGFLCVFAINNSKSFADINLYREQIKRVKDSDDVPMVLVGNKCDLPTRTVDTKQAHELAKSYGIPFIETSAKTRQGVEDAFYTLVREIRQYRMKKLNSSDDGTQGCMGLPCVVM

[2] = target: GDP-bound HRAS wild-type protein (Homo sapiens, UniProt P01112); assay: Binding to HRAS by surface plasmon resonance (SPR), Single Cycle Kinetics; settings: SPR, GDP-bound HRAS wild-type protein vs GDP-bound KRAS wild-type protein
Chain of GDP-bound HRAS wild-type protein (P01112 whole entry): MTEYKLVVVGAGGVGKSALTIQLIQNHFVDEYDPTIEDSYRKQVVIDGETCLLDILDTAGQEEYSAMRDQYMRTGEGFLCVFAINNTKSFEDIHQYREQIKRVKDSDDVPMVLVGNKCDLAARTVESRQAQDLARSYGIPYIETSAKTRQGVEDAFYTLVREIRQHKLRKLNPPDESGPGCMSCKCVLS

[3] = target: GDP-bound KRAS wild-type protein (Homo sapiens, UniProt P01116); assay: Binding to KRAS by surface plasmon resonance (SPR), Single Cycle Kinetics; settings: GDP-bound KRAS wild-type protein, read-out: KRAS KD
Chain of GDP-bound KRAS wild-type protein (P01116 whole entry): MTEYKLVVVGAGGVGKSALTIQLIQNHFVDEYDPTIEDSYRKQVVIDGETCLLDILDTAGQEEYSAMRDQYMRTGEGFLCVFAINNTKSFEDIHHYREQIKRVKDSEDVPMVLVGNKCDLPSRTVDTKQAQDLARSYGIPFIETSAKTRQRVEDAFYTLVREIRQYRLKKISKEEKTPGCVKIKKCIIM

[4] = SPR, Single Cycle Kinetics, 1:1 binding model
[5] = SPR Single Cycle Kinetics, 1:1 binding model

Row | Compound | NRAS/KRAS (ratio of KD value for NRAS to KD value for KRAS) ([1]; KD ratio class) | HRAS/KRAS (ratio of KD value for HRAS to KD value for KRAS) ([2]; KD ratio class) | pKd [3, 4] | NRAS/KRAS (ratio of KD value for NRAS to KD value for KRAS) [1] | HRAS/KRAS (ratio of KD value for HRAS to KD value for KRAS) [2] | pKd [3, 5] | pKd ([3]; SPR, Single Cycle Kinetics)
1 | CCO[C@@H]1C[C@H]2C(=O)NC3(CCC3)C(=O)N(C)[C@@H](C3CCCC3)C(=O)N(C)[C@H](C(=O)N(CC)CC)CC(=O)N(C)[C@@H](CC)C(=O)N[C@@H]([C@@H](C)CC)C(=O)N(C)CC(=O)N(C)[C@H]3C/C=C\CCN(C3=O)[C@@H](Cc3ccc(C(F)(F)F)cc3)C(=O)N(C)CC(=O)N[C@@H](CCc3cc(F)c(C(F)(F)F)c(F)c3)C(=O)N2C1 [PP1305, (2S,8S,12R,14S,20S,23S,27S,30S,36S,38Z)-20-cyclopentyl-8-[2-[3,5-difluoro-4-(trifluoromethyl)phenyl]ethyl]-12-ethoxy-N,N,27-triethyl-4,19,22,26,32,35-hexamethyl-30-[(1S)-1-methylpropyl]-3,6,9,15,18,21,25,28,31,34,42-undecaoxo-2-[[4-(trifluoromethyl)phenyl]methyl]spiro[1,4,7,10,16,19,22,26,29,32,35-undecazatricyclo[34.5.1.0^10,14]dotetracont-38-ene-17,1′-cyclobutane]-23-carboxamide] | AA (a compound having 20 or more is denoted as AA) | A (a compound having 10 or more and less than 20 is denoted as A) | 9.92 |  |  |  | 
2 | CCCN1C(=O)CN(C)C(=O)CN(C)C(=O)[C@H]([C@@H](C)CC)NC(=O)[C@H](CC(C)C)N(C)C(=O)C[C@@H](C(=O)N2CCOCC2)N(C)C(=O)[C@H](C2CCCC2)N(C)C(=O)C(C)(C)NC(=O)[C@@H]2CCCN2C(=O)[C@H](CCc2ccc(C(F)(F)F)c(Cl)c2)NC(=O)CN(C)C(=O)[C@@H]1Cc1ccc(C(F)(F)F)cc1 [PP0230] ([NMeL]I[Sar][Sar][NPrPhe(4-CF3)][Sar][hPhe(3-Cl-4-CF3)]P[Aib][NMeGly(cPent)][NMeD]-Morpholide; lactam N-11) |  |  |  | B (a compound having 3 or more and less than 10 is denoted as B) | C (A compound having a KD ratio of 0.1 or more and less than 3 is denoted as C) | 9.41 | 
3 | CCO[C@@H]1C[C@H]2C(=O)NC3(CCC3)C(=O)N(C)[C@@H](C3CCCC3)C(=O)N(C)[C@H](C)CC(=O)N(C)[C@@H](CC(C)C)C(=O)N[C@@H]([C@@H](C)CC)C(=O)N(C)CC(=O)N(C)[C@H]3C/C=C\CCN(C3=O)[C@@H](Cc3ccc(C)cc3)C(=O)N(C)CC(=O)N[C@@H](CCc3cc(F)c(C(F)(F)F)c(F)c3)C(=O)N2C1 [PP1417] | B (a compound having 3 or more and less than 10 is denoted as B) | B (a compound having 3 or more and less than 10 is denoted as B) | 9.59 |  |  |  | 
4 | CC[C@H](C)[C@@H]1NC(=O)[C@H](CC(C)C)N(C)C(=O)C[C@@H](C(=O)N2CCOCC2)N(C)C(=O)[C@H](C2CCCC2)N(C)C(=O)C2(CCC2)NC(=O)[C@@H]2C[C@@H](OC)CN2C(=O)[C@H](CCc2cc(F)c(C(F)(F)F)c(F)c2)NC(=O)CN(C)C(=O)[C@H](Cc2ccc(C(F)(F)F)cc2)N2CCCCC[C@@H](C2=O)N(C)C(=O)CN(C)C1=O [PP1016] |  |  |  | A (a compound having 10 or more and less than 20 is denoted as A) | B (a compound having 3 or more and less than 10 is denoted as B) |  | 9.57
5 | CC[C@H](C)[C@@H]1NC(=O)[C@H](COC)N(C)C(=O)C[C@@H](C(=O)N2CCOCC2)N(C)C(=O)[C@H](C2CCCC2)N(C)C(=O)C2(CCCC2)NC(=O)[C@@H]2C[C@H](O)CN2C(=O)[C@H](CCc2cc(F)c(C(F)(F)F)c(F)c2)NC(=O)CN(C)C(=O)[C@H](Cc2ccc(C(F)(F)F)cc2)N2CCCCC[C@@H](C2=O)N(C)C(=O)CN(C)C1=O [PP0847] |  |  |  | B (a compound having 3 or more and less than 10 is denoted as B) | B (a compound having 3 or more and less than 10 is denoted as B) |  | 9.55
6 | CCO[C@@H]1C[C@H]2C(=O)NC3(CCC3)C(=O)N(C)[C@@H](C3CCCC3)C(=O)N[C@H](C(=O)N(C)C)CC(=O)N(C)[C@@H](CC)C(=O)N[C@@H]([C@@H](C)CC)C(=O)N(C)CC(=O)N(C)[C@H]3C/C=C\CCN(C3=O)[C@@H](Cc3ccc(C(F)(F)F)cc3)C(=O)N(C)CC(=O)N[C@@H](CCc3cc(F)c(C(F)(F)F)c(F)c3)C(=O)N2C1 [PP1094] |  |  |  | A (a compound having 10 or more and less than 20 is denoted as A) | B (a compound having 3 or more and less than 10 is denoted as B) |  | 9.08
7 | CCO[C@@H]1C[C@H]2C(=O)N(C)C3(CCC3)C(=O)N(C)[C@@H](C(CC)CC)C(=O)N(C)[C@H](C(=O)N(C)C)CC(=O)N(C)[C@@H](COC)C(=O)N[C@@H]([C@@H](C)CC)C(=O)N(C)CC(=O)N(C)[C@H]3C/C=C\CCN(C3=O)[C@@H](CC3CCCCC3)C(=O)N(C)CC(=O)N[C@@H](CCc3ccc(C(F)(F)F)c(OC)c3)C(=O)N2C1 [PP2335] |  |  |  | A (a compound having 10 or more and less than 20 is denoted as A) | A (a compound having 10 or more and less than 20 is denoted as A) |  | 8.85
8 | CCO[C@@H]1C[C@H]2C(=O)NC3(CCC3)C(=O)N(C)[C@@H](C3CCCC3)C(=O)N(C)[C@H](C(=O)N(C)C)CC(=O)N(C)[C@@H](CC)C(=O)N[C@@H]([C@@H](C)CC)C(=O)N(C)CC(=O)N(C)[C@H]3CCCCCN(C3=O)[C@@H](Cc3ccc(C(F)(F)F)cc3)C(=O)N(C)CC(=O)N[C@@H](CCc3c(F)c(F)c(C(F)(F)F)c(F)c3F)C(=O)N2C1 [PP0891] |  |  |  | B (a compound having 3 or more and less than 10 is denoted as B) | B (a compound having 3 or more and less than 10 is denoted as B) |  | 9.21
9 | CCO[C@@H]1C[C@H]2C(=O)NC3(CC(C)(C)C3)C(=O)N(C)[C@@H](C(CC)CC)C(=O)N(C)[C@H](C(=O)N(C)C)CC(=O)N(C)[C@H]3CCCCC/C=C/c4ccc(cc4)C[C@@H](C(=O)N(C)CC(=O)N[C@@H](CCc4ccc(Cl)c(Cl)c4)C(=O)N2C1)N1CC/C=C\C[C@@H](C1=O)N(C)C(=O)CN(C)C(=O)[C@H]([C@@H](C)CC)NC3=O [PP3050] |  |  |  | AA (a compound having 20 or more is denoted as AA) | A (a compound having 10 or more and less than 20 is denoted as A) |  | 9.54
10 | CCCN1C(=O)CN(C)C(=O)CN(CC)C(=O)[C@H]([C@@H](C)CC)NC(=O)[C@H](CC(C)C)N(C)C(=O)C[C@@H](C(=O)N(C)C)NC(=O)[C@H](C2CCCC2)N(C)C(=O)C2(CCC2)NC(=O)[C@@H]2CC(F)(F)CN2C(=O)[C@H](CCc2ccc(C(F)(F)F)c(Cl)c2)NC(=O)CN(C)C(=O)[C@@H]1Cc1ccc(C(F)(F)F)cc1 [PP0370] ([NMeL]I[NEtG][Sar][NPrPhe(4-CF3)][Sar][hPhe(3-Cl-4-CF3)][Pro(4,4-F2)][Ac4c][NMeGly(cPent)]D-NMe2; lactam N-11) |  |  |  | B (a compound having 3 or more and less than 10 is denoted as B) | C (A compound having a KD ratio of 0.1 or more and less than 3 is denoted as C) | 8.82 | 
11 | C#CC[C@H]1C(=O)N[C@@H]([C@@H](C)CC)C(=O)N(C)CC(=O)N(C)[C@H]2C/C=C\CCN(C2=O)[C@@H](Cc2ccc(C(F)(F)F)cc2)C(=O)N(C)CC(=O)N[C@@H](CCc2ccc(C(F)(F)F)c(OC)c2)C(=O)N2C[C@@H](C)C[C@H]2C(=O)NC2(CCC2)C(=O)N(C)[C@@H](C2CCCC2)C(=O)N(C)[C@H](C(=O)N(C)CC)CC(=O)N1C [PP2061] |  |  |  | AA (a compound having 20 or more is denoted as AA) | A (a compound having 10 or more and less than 20 is denoted as A) |  | 10.12
12 | CC[C@H](C)[C@@H]1NC(=O)[C@@H]2CCC/C=C/c3ccc(cc3)C[C@@H](C(=O)N(C)CC(=O)N[C@@H](CCc3ccc(Cl)c(Cl)c3)C(=O)N3C[C@H](OC4CCC4)C[C@H]3C(=O)NC3(CC(C)(C)C3)C(=O)N(C)[C@@H](C3CCCC3)C(=O)N(C)[C@H](C(=O)N3CCCC3)CC(=O)N2C)N2CC/C=C\C[C@@H](C2=O)N(C)C(=O)CN(C)C1=O [PP3053] |  |  |  | A (a compound having 10 or more and less than 20 is denoted as A) | A (a compound having 10 or more and less than 20 is denoted as A) |  | 9.80
13 | CCO[C@@H]1C[C@H]2C(=O)NC3(CC(C)(C)C3)C(=O)N(C)[C@@H](C(CC)CC)C(=O)N(C)[C@H](C(=O)N(C)C)CC(=O)N(C)[C@@H](CC)C(=O)N[C@@H]([C@@H](C)CC)C(=O)N(C)CC(=O)N(C)[C@H]3C/C=C\CCN(C3=O)[C@@H](Cc3ccc(C)cc3)C(=O)N(C)CC(=O)N[C@@H](CCc3ccc(C(F)(F)F)c(OC)c3)C(=O)N2C1 [PP2170] |  |  |  | A (a compound having 10 or more and less than 20 is denoted as A) | A (a compound having 10 or more and less than 20 is denoted as A) |  | 9.48
